Test results from patent publication US20250243427A1, “PRECURSORS OF PHENOLIC FRAGRANT COMPOUNDS” (GIVAUDAN SA, priority 2021, published 2025).
“Also recorded” adds a separate entry of the source. Blank lines part the entries; values can stand above or below the compound they belong to.

What was measured:
[1] = Washtest and sensory evaluation of fabric washed with liquid detergent; settings: for odor intensity, 1 day / odor intensity, 4 days / odour intensity, 1 day / odour intensity, 4 days: scale 0 to 5; for odor intensity, wet / odour intensity, wet: wet fabric, scale 0 (odorless) to 5 (extremely strong); for odour intensity, wet: Table 2 (position of double bond); for odour intensity, 1 day / odour intensity, 4 days: Table 2
Protocol: The wet and line-dried fabric (1 and 4 days) was assessed by a panel of 4-6 experts with regard to odor intensity and quality. The odor intensity was recorded on an intensity scale of 0 (odorless) to 5 (extremely strong).
The odour intensity was recorded on an intensity scale of 0 (odorless) to 5 (extremely strong).
Liquid detergent samples were prepared and used in washtests and subsequent sensory evaluation of the washed and dried fabric as described in Example 45a and c. The odor intensity was recorded on an intensity scale of 0 (odorless) to 5 (extremely strong).

[2] = Odor description on paper blotter; settings: 1% solution in EtOH on paper blotter, 24 h
[3] = Biodegradability, manometric respirometry test (OECD 301F); parameters: key to result (biodegradable class; cell wraps to 'biodegradable'): A compound is readily biodegradable, if the pass level is reached within 10 days within the 28-day period of the test; If the pass level is obtained after 28-day period of the test, the compound can be classified as inherently biodegradable; settings: for result (biodegradable class; cell wraps to 'biodegradable'): 28-day test, 10-day window; for Biodegradation in %: pass level 60% oxygen consumption of theory
Text: The results of the biodegradability assessment by the manometric respirometry test (OECD guideline for the testing of materials No. 301F, Paris 1992) are summarized in Table 5.
A compound can be classified biodegradable, if it reaches the pass level of 60% oxygen consumption of theory required for complete mineralization.
A compound is readily biodegradable, if the pass level is reached within 10 days within the 28-day period of the test. The 10-day window begins when the degree of biodegradation has reached 10%. If the pass level is obtained after 28-day period of the test, the compound can be classified as inherently biodegradable.

[4] = Malodour reduction on washed fabric, trained sensory panel; settings: 4 day dry cloth washed with unit dose containing 2% of a 10% solution in trietylcitrate, + Male Sweat Malodour, 0-100 line scale; for Perceived Fragrance Intensity: control set at 0; for Perceived Malodour Intensity: malodour control set at 40
Protocol: Fabrics (18 cm×14 cm cotton jersey) were stripped before use. They were then washed in European washing machines (40° C.—1,000 spin/min) with one unit dose (65 g) used per wash load. The unit dose contained 2% of a 10% solution of the compound of formula 1 in trietylcitrate. • a) Compound of example 33 • b) Compound of example 34 • c) Compound of example 1
The total wash load was 1.6 kg made up of test cloths and hand towels (100% cotton) as ballast. The cloth was line dried and left overnight in a perfume free room at 25° C., left to hang for 3 days and then wrapped in foil the day prior to the test (day 3). 30 minutes before the assessment, 50 μL of the pure Male Sweat malodour was placed on top of a cotton pad and introduced into a 500 ml powder jar. One cotton jersey square was then placed over the top of the powder jar and secured with a rubber band. Every sample tested was coded with a random code number.
The malodour and fragrance perceived intensities were assessed by the trained sensory panel using a 0-100 line scale. All malodour and fragrance perceived intensities were scaled against the malodour control sample. The malodour perceived intensity was set at 40 for Male Sweat malodour and the fragrance perceived intensity was set at 0.
The order of samples assessed by the panelists was pre-determined using a balanced randomisation. The samples were assessed in a sequential monadic way. The products were assessed twice by 14 panelists, thus giving 28 assessments per sample.
Before analysis, the data was checked for outliers and extreme violations to normality.
Reliability of the data was checked and data of panelists with poor discrimination, consensus or repeatability may have been removed from the analysis. The data was analysed using analysis of variance (ANOVA). A 5% significance level (95% confidence level) was used. Separate ANOVAs were carried out for malodour and fragrance intensity. The ANOVA have product, panelist, and replicate as factors. Pairwise comparisons of the products were done using the Benjamini-Hochberg correction for multiple testing. The estimated product means are reported.

[5] = Color stability in liquid detergent, visual inspection; assay type: physicochemical; settings: 0.2% by weight in unperfumed liquid detergent base, stirred 24 h at room temperature; compared to unperfumed base sample (C)
Text: The above prepared samples were visually inspected in comparison to an unperfumed base sample (sample C).

[6] = Table 3, liquid detergent washtest
[7] = Table 3, liquid detergent washtest, dry fabric 1 day
[8] = Table 3, liquid detergent washtest, dry fabric 4 days
[9] = liquid detergent washtest, dry fabric 1 day
[10] = liquid detergent washtest, dry fabric 4 days

Compound: C/C=C/c1ccc(OCC/C=C\CC)c(OC)c1 [Example 11, 1-(((Z)-hex-3-en-1-yl)oxy)-2-methoxy-4-((E)-prop-1-en-1-yl)benzene]
odor on dry fabric [1, 6]: spicy, vanilla
odor intensity, 1 day [1, 7]: 1.9
odor intensity, 4 days [1, 8]: 3.0
odor intensity, wet [1, 6]: 2.0
Odor description [2]: slightly spicy woody

result (biodegradable class; cell wraps to 'biodegradable') [3]: readily
Biodegradation in % [3]: 82%
Compound: CC/C=C\CCOc1ccc(CCC(C)=O)cc1 [Example 6, (Z)-4-(4-(hex-3-en-1-yloxy)phenyl)butan-2-one]
odor on dry fabric [1, 6]: raspberry
odor intensity, 1 day [1, 7]: 2.8
odor intensity, 4 days [1, 8]: 3.6
odor intensity, wet [1, 6]: 3.0
Odor description [2]: raspberry

result (biodegradable class; cell wraps to 'biodegradable') [3]: readily
Biodegradation in % [3]: 91%
Compound: CC(=O)CCc1ccc(OCCC=C(C)C)cc1 [Example 18, 4-(4-((4-methylpent-3-en-1-yl)oxy)phenyl)butan-2-one]
Odor description [2]: sweet fruity (raspberry ketone)

result (biodegradable class; cell wraps to 'biodegradable') [3]: inherently
Biodegradation in % [3]: 69%
Compound: CCOc1cc(C=O)ccc1OCCC=C(C)C [Example 34, 3-ethoxy-4-((4-methylpent-3-en-1-yl)oxy)benzaldehyde]
Perceived Fragrance Intensity [4]: 31.1
Perceived Malodour Intensity [4]: 20.6
odor on dry fabric [1, 6]: vanilla
odor intensity, 1 day [1, 7]: 3.3
odor intensity, 4 days [1, 8]: 3.4
odor intensity, wet [1, 6]: 1.5
Odor description [2]: powdery, vanilla, chocolate

result (biodegradable class; cell wraps to 'biodegradable') [3]: inherently
Biodegradation in % [3]: 66%
Compound: CC=CCCOc1ccc(C=O)cc1OCC [Example 33, 3-ethoxy-4-(pent-3-en-1-yloxy)benzaldehyde]
Perceived Fragrance Intensity [4]: 22.3
Perceived Malodour Intensity [4]: 26.5
odour intensity, wet ([1]; liquid detergent washtest): 1.1
odour intensity, 1 day [1, 9]: 3.2
odour intensity, 4 days [1, 10]: 3.8
Odor description [2]: mild, powdery, vanilla, peppery

Compound: CC/C=C\CCOc1cc(C)c(C(=O)OC)c(O)c1C [Example 9, methyl (Z)-4-(hex-3-en-1-yloxy)-2-hydroxy-3,6-dimethylbenzoate]
odor on dry fabric [1, 6]: oakmoss
odor intensity, 1 day [1, 7]: 1.7
odor intensity, 4 days [1, 8]: 3.3
odor intensity, wet [1, 6]: 1.0
Odor description [2]: powdery mossy (Evernyl)

result (biodegradable class; cell wraps to 'biodegradable') [3]: inherently
Biodegradation in % [3]: 61%
Compound: CC/C=C\CCOc1ccc(C=O)cc1OCC [Example 1, (Z)-3-ethoxy-4-(hex-3-en-1-yloxy)benzaldehyde]
Color of liquid detergent sample (visual inspection) [5]: optically identical to the unperfumed base
Perceived Fragrance Intensity [4]: 18.3
Perceived Malodour Intensity [4]: 29.5
odor released from washed T-shirts ([1]; 0.2% in liquid detergent, 40° C. machine wash, after 1 and 4 days): strong vanilla, sweet, powdery and creamy fragrance
odor intensity, 1 day ([1]; Table 1, 0.2% in liquid detergent, 40° C. machine wash, line-dried fabric 1 day): 3
odor intensity, 4 days ([1]; Table 1, 0.2% in liquid detergent, 40° C. machine wash, line-dried fabric 4 days): 3.7
odor intensity, wet ([1]; Table 1, 0.2% in liquid detergent, 40° C. machine wash): 1.3
odour intensity, wet ([1]; liquid detergent washtest): 3.2
odour intensity, 1 day [1, 9]: 3.2
odour intensity, 4 days [1, 10]: 3.6
Odor description [2]: powdery (vanillin) creamy

Compound: C=CCc1ccc(OCC/C=C\CC)c(OC)c1 [Example 10, (Z)-4-allyl-1-(hex-3-en-1-yloxy)-2-methoxybenzene]
odor on dry fabric [1, 6]: spicy, clove,; also recorded: gingerbread
odor intensity, 1 day [1, 7]: 2.4
odor intensity, 4 days [1, 8]: 2.5
odor intensity, wet [1, 6]: 1.6
Odor description [2]: slightly spicy

Compound: C=CCCCOc1ccc(C=O)cc1OCC [Example 53, 3-ethoxy-4-(pent-4-en-1-yloxy)benzaldehyde, reference compound]
odour intensity, wet ([1]; liquid detergent washtest): 1.5
odour intensity, 1 day [1, 9]: 1.3
odour intensity, 4 days [1, 10]: 1.2

Compound: CCC/C=C/COc1ccc(C=O)cc1OCC [Example 54, (E)-3-ethoxy-4-(hex-2-en-1-yloxy)benzaldehyde, reference compound]
odour intensity, wet ([1]; liquid detergent washtest): 1.2
odour intensity, 1 day [1, 9]: 1.8
odour intensity, 4 days [1, 10]: 1.4

Compound: CC/C=C\CC(C)Oc1ccc(CCC(C)=O)cc1 (stereo not shown) [Example 5, (Z)-4-(4-(hept-4-en-2-yloxy)phenyl)butan-2-one]
Odor description [2]: raspberry (fruity, ripe, fresh)

Compound: C=CCC(CC=C)Oc1ccc(CCC(C)=O)cc1 [Example 23, 4-(4-(hepta-1,6-dien-4-yloxy)phenyl)butan-2-one]
Odor description [2]: fruity (raspberry)

Compound: (Z)-2-ethoxy-1-(hex-3-en-1-yloxy)-4-methylbenzene and (Z)-1-ethoxy-2-(hex-3-en-1-yloxy)-4-methylbenzene [Example 35]
Odor description [2]: spicy, eugenol, clove, phenolic, vanilla, medicinal

Compound: C=CCC(CCC)Oc1ccc(CCC(C)=O)cc1 (stereo not shown) [Example 21, 4-(4-(hept-1-en-4-yloxy)phenyl)butan-2-one]
Odor description [2]: raspberry

result (biodegradable class; cell wraps to 'biodegradable') [3]: readily
Biodegradation in % [3]: 92%
Compound: CC/C=C\CCOc1ccc(C=O)cc1OC [Example 8, (Z)-4-(hex-3-en-1-yloxy)-3-methoxybenzaldehyde]
Odor description [2]: powdery (vanilla) slightly green

Compound: C=CCC(C)(C)Oc1ccc(C=O)cc1OCC [Example 28, 3-ethoxy-4-((2-methylpent-4-en-2-yl)oxy)benzaldehyde]
Odor description [2]: powdery (vanilla)

Compound: CCOc1cc(C=O)ccc1O [Ethylvanillin (A), 3-ethoxy-4-hydroxybenzaldehyde, reference compound]
Color of liquid detergent sample (visual inspection) [5]: strong brown-purple coloration

result (biodegradable class; cell wraps to 'biodegradable') [3]: inherently
Biodegradation in % [3]: 74%
Compound: CCOc1cc(C=O)ccc1OC1CC=CC1 [Example 20, 4-(cyclopent-3-en-1-yloxy)-3-ethoxybenzaldehyde]
odor on dry fabric [1, 6]: vanilla, powdery
odor intensity, 1 day [1, 7]: 3.0
odor intensity, 4 days [1, 8]: 3.7
Odor description [2]: vanilla (powdery, spicy, creamy)

Compound: C=CCCOc1cc(C)c(C(=O)OC)c(O)c1C [Example 14, methyl 4-(but-3-en-1-yloxy)-2-hydroxy-3,6-dimethylbenzoate]
Odor description [2]: slightly mossy

Compound: CCOc1cc(C=O)ccc1OCCC=C(C)CC [Example 40, 3-ethoxy-4-((4-methylhex-3-en-1-yl)oxy)benzaldehyde]
Odor description [2]: powdery, vanilla, creamy, chocolate, slightly butyric

Compound: CCOc1cc(C=O)ccc1OCCC=CC(=O)OC [Example 60, methyl 5-(2-ethoxy-4-formylphenoxy)pent-2-enoate]
Odor description [2]: sweet powdery gourmand, vanilla, coffee, creamy, vanilla, milky
